In patent publication US9597327B2, “Synthesis of (R)-N-methylnaltrexone” (Progenics Pharmaceuticals, Inc., priority 2005, dated 2017):
Counter-ions that a name gives are not always drawn.

Tests used:
chronic opioid user = details: intravenously; subjects receiving opioids chronically; cited from earlier work
[1] = opioid agonist / antagonist character of the MNTX stereoisomers (stated, no method given); details: statement in words, no assay described

Row | SMILES | dose required to induce immediate laxation (chronic opioid user) | opioid activity (agonist or antagonist) [1]
1 | C[N+]1(CC2CC2)CC[C@]23c4c5ccc(O)c4O[C@H]2C(=O)CC[C@@]3(O)[C@H]1C5 (stereo partly drawn) [MNTX, Methylnaltrexone] | about 0.15 mg/kg | 
2 | C[N+]1(CC2CC2)CC[C@]23c4c5ccc(O)c4O[C@H]2C(=O)CC[C@@]3(O)[C@H]1C5 (stereo partly drawn) [R-MNTX, morphinanium, 17R, 17-(cyclopropylmethyl)-4,5-epoxy-3,14-dihydroxy-17-methyl-6-oxo-, salt, (5α)-(9Cl)] |  | opioid antagonist
3 | C[N@@+]1(CC2CC2)CC[C@]23c4c5ccc(O)c4OC2C(=O)CCC3(O)C1C5 (stereo partly drawn) [S-MNTX] |  | opioid agonist
